PMC8300687, “A Fine-Tuned Lipophilicity/Hydrophilicity Ratio Governs Antibacterial Potency and Selectivity of Bifurcated Halogen Bond-Forming NBTIs” (Antibiotics, 2021)
≈ marks a conversion by molar mass, not a printed value. Where two headings read alike, the source gives them in different places.

Assays:
MRSA (QA-11.6) = assay: MIC broth microdilution, MRSA QA-11.6; format: cell-based, methicillin-resistant S. aureus; conditions: Staphylococcus aureus, read-out: MIC MRSA (QA-11.6)
Protocol: (§1) Antimicrobial testing was carried out by the broth microdilution method in 96-well plate format following the Clinical and Laboratory Standards Institute (CLSI) guidelines and European Committee on Antimicrobial Susceptibility Testing (EUCAST) recommendations. Bacterial suspension of specific bacterial strain equivalent to 0.5 McFarland turbidity standard was diluted with cation-adjusted Mueller Hinton broth with TES (Thermo Fisher Diagnostic, Landsmeer, The Netherlands), to obtain a final inoculum of 10^5 CFU/mL. Compounds dissolved in DMSO and inoculum were mixed together and incubated for 18–20 h at 35 °C. Suspensions of Mycobacterium sp. were prepared into a tube of Middelbrook 7H9 broth supplemented with 5% OADC (Thermo Scientific, Trek Diagnostic Systems, West Sussex, UK) and incubated for at least 10 days. After incubation the minimal inhibitory concentration (MIC) values were determined by visual inspection as the lowest dilution of compounds showing no turbidity. Tetracycline was used as a positive control on every assay plate.

MRSA (QA-11.4) = assay: MIC broth microdilution, MRSA QA-11.4; format: cell-based, methicillin-resistant S. aureus; conditions: Staphylococcus aureus, 20 h, read-out: MIC MRSA (QA-11.4)
Protocol: as §1

HUVEC = assay: Metabolic activity assessment (cytotoxicity), HUVEC; format: cell-based; conditions: Homo sapiens, metabolic activity after 72 h treatment
Protocol: Cells of the HepG2 line (ATCC® HB-8065™) and HUVEC (ATCC® CRL-1730™) were cultured in Dulbecco’s Modified Eagle Medium (DMEM; Sigma-Aldrich, St. Louis, MO, USA) supplemented with 10% heat-deactivated FBS (Gibco, Grand Island, NE, USA), 2 mM L-glutamine, 100 U/mL penicillin, 100 μg/mL streptomycin (all from Sigma-Aldrich, St. Louis, MO, USA) in a humidified chamber at 37 °C and 5% CO2. The experiments were carried out on passages 7–9 for both cell lines. The tested compounds were dissolved in DMSO and further diluted in culture medium to a desired final concentration. Cells were seeded into 96-well plates at 8 × 10^4 cells/mL (100 μL/well) and incubated for 24 h to attach onto the wells. Cells were treated with 1 μM and 50 μM of each compound of interest or corresponding vehicle as control. […] The metabolic activity was assessed after 72 h treatment using the CellTiter 96 Aqueous One Solution Cell Proliferation Assay (Promega, Madison, WI, USA), in accordance with the manufacturer’s instructions. The absorbance was measured at 492 nm on an automated microplate reader BioTek Synergy HT (BioTek Instruments, Inc., Winooski, VT, USA). Data are presented as the percentage of metabolic activity of control cells stimulated with vehicle or as IC50 value (mean ± SD) from two independent experiments, each conducted in duplicate or triplicate. IC50 values were calculated by a non-linear regression model using Graph Pad Prism 7 software.

Human topoisomerase IIα = target: T1, Human topoisomerase IIα (Homo sapiens, UniProt P11388); assay: Human topoisomerase II Alpha Relaxation High Throughput Plate assay; format: biochemical; conditions: 0.5 h; residual activity of the enzyme at compound concentration 10 μM, mean ± SD; read-out: Human Topo II (% RA)
T1 construct: purchased Inspiralis (Norwich, UK)
T1 sequence (P11388 whole entry): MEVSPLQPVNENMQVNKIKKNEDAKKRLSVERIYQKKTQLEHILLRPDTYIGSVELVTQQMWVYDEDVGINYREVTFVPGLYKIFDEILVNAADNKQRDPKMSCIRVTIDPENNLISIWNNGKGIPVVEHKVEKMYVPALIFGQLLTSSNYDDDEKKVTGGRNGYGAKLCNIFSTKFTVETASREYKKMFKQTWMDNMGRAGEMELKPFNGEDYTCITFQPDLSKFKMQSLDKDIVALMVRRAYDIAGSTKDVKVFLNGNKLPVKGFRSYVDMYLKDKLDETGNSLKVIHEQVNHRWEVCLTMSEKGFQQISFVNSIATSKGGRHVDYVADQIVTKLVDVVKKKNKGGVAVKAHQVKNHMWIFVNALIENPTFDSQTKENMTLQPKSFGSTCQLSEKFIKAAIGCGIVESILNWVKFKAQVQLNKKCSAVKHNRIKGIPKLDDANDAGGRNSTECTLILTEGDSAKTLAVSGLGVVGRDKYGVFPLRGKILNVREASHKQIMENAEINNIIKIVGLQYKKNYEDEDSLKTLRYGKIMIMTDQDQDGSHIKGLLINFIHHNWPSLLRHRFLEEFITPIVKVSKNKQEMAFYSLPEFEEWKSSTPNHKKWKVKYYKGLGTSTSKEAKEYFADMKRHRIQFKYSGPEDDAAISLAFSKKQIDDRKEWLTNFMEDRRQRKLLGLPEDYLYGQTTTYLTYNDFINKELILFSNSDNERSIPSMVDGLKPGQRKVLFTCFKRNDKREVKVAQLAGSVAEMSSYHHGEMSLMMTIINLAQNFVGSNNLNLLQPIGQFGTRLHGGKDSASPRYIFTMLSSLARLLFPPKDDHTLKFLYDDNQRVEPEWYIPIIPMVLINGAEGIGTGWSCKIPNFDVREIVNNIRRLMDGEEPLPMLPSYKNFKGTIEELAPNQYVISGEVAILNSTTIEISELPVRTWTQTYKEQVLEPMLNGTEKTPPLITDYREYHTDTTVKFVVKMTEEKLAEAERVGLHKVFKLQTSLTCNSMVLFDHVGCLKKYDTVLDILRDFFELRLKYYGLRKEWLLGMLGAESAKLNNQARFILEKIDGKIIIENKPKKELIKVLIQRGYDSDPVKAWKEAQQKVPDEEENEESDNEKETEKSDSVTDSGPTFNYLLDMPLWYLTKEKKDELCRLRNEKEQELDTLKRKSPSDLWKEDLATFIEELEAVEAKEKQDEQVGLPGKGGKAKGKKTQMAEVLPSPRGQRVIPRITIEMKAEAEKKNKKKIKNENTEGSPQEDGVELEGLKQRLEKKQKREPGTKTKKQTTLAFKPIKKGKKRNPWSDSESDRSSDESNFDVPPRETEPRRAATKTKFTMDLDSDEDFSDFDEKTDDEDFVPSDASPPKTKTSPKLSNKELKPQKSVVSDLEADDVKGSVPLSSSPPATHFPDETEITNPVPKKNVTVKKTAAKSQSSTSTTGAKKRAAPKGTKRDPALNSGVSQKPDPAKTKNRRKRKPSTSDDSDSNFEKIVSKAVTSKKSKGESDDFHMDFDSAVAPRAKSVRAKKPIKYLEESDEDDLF
Protocol: A Human topoisomerase II Alpha Relaxation High Throughput Plate assay kit, purchased from Inspiralis (Norwich, UK) was used to evaluate the selectivity of compounds for the bacterial enzymes over the homologous human topoisomerase II. […] Biotinylated oligonucleotide in wash buffer was immobilized onto the wells and the excess oligonucleotide was washed off with wash buffer. […] The reactions were stopped by adding the TF buffer (50 mM NaOAc (pH 4.7), 50 mM NaCl, and 50 mM MgCl2) to allow the triplex formation (biotin-oligonucleotide-plasmid) for additional 30 min. Afterward, the unbound plasmid was washed off using TF buffer, and the solution of Promega Diamond dye in T10 buffer (10 mM Tris-HCl (pH 8.0), 1 mM EDTA) was added. […] Screening was performed at inhibitor concentrations of 10 μM. Raw data were converted to mean ± SD percentage of residual activity of the enzyme obtained by two independent measurements.

MRSA = assay: MIC broth microdilution, MRSA; format: cell-based, methicillin-resistant S. aureus; conditions: Staphylococcus aureus, read-out: MIC MRSA
Protocol: as §1

[1] = tested on: E. faecalis DRK 057 (ATCC 29212); assay: MIC broth microdilution, E. faecalis; format: cell-based
Protocol: as §1

in vitro = conditions: for Papp at 4 h: PAMPA; for PAMPA permeability classification [low/high]: relative to reference drugs
Protocol: Prior to the measurements of solubility and permeability isocratic HPLC methods were developed. […] The individual method parameters for each compound are given in the Supplementary Materials Table S1.
A 96-well precoated three-layer PAMPA plates (Corning® Gentest™ Pre-coated PAMPA Plate System, Corning, NY, USA) were used according to the manufacturer’s instructions and as described previously with 300 µL of the donor solutions in the bottom compartment and 200 µL of the acceptor solution (pH 7.4 PBS) in the upper compartment at 37 °C and a 4-h incubation time. The initial and end donor solutions were injected at a 5 µL injection volume. The initial donor solutions were also diluted 100-fold and injected at a 100 µL injection volume to serve as external references for the end acceptor solutions which were injected at the same injection volume. The permeability calculations were made with a manufacturer-provided Excel spreadsheet directly from the measured peak areas accounting for the relevant dilutions and injection volumes.

E. coli D22 = assay: MIC broth microdilution, E. coli D22; format: cell-based; conditions: Escherichia coli
Protocol: as §1

[2] = tested on: P. aeruginosa RDK 184 (DSM 939); assay: MIC broth microdilution, P. aeruginosa; format: cell-based
Protocol: as §1

MRSA (QA-11.2) = assay: MIC broth microdilution, MRSA QA-11.2; format: cell-based, methicillin-resistant S. aureus; conditions: Staphylococcus aureus, 20 h, read-out: MIC MRSA (QA-11.2)
Protocol: as §1

[3] = tested on: S. agalactiae RDK 047 (QA-990/02); assay: MIC broth microdilution, S. agalactiae; format: cell-based
Protocol: as §1

E. coli N43 (CGSC# 5583) = assay: MIC broth microdilution, E. coli N43; format: cell-based; conditions: Escherichia coli
Protocol: as §1

S. pneumoniae (QA-10/02) = assay: MIC broth microdilution, S. pneumoniae; format: cell-based; conditions: Streptococcus pneumoniae
Protocol: as §1

[4] = resistant to cefoxitin, gentamicin, sulfamethoxazole, tetracycline
[5] = Enterococcus faecalis, ATCC29212; read-out: MIC E. faecalis DRK 057 (ATCC 29212)
[6] = D22, mutation in the lpxC gene that increases membrane permeability, read-out: MIC E. coli D22
[7] = Pseudomonas aeruginosa, DSM939; read-out: MIC P. aeruginosa RDK 184 (DSM 939)
[8] = resistant to cefoxitin, chloramphenicol, clindamycin, linezolid, tetracycline, thiamulin, trimethoprim
[9] = Streptococcus agalactiae; read-out: MIC S. agalactiae RDK 047 (QA-990/02)
[10] = read-out: E. coli N43 MIC in molar
[11] = read-out: MIC E. coli N43 (CGSC# 5583)

Compound | MIC (MRSA (QA-11.6); [4]) [µg/mL] | MIC (MRSA (QA-11.4); resistant to cefoxitin) [µg/mL] | IC50 (HUVEC) [µM] | remaining activity at 10 µM (Human topoisomerase IIα) [%] | MIC (MRSA) [µg/mL] | MIC [1, 5] [µg/mL] | Papp at 4 h (in vitro) [×10⁻⁶ cm/s] | Papp at 4 h (in vitro; pH 7.4) [×10⁻⁶ cm/s] | MIC (E. coli D22; [6]) [µg/mL] | MIC [2, 7] [µg/mL] | MIC (MRSA (QA-11.2); [8]) [µg/mL] | MIC [3, 9] [µg/mL] | MIC (E. coli N43 (CGSC# 5583); [10]) [µM] | MIC (E. coli N43 (CGSC# 5583); [11]) [µg/mL] | MIC (S. pneumoniae (QA-10/02)) [µg/mL] | also measured
COc1ccc2nccc(CCN3CCC(NCc4nc5ccccc5n4C)CC3)c2n1 [Compound 3, 1-(2-(6-Methoxy-1,5-naphthyridin-4-yl)ethyl)-N-((1-methyl-1H-benzo[d]imidazol-2-yl)methyl)piperidin-4-amine] | 2 (≈ 4.65 µM) | 4 (≈ 9.29 µM) | > 50 | 94.7 ± 4.82 | 2 (≈ 4.65 µM) | 4 (≈ 9.29 µM) | > 2.7 | 5.4 | > 128 | > 128 | 4 (≈ 9.29 µM) | < 1 | 37.2 | 16 | 2 (≈ 4.65 µM) | 
COc1ccc2nccc(CCN3CCC(NCc4cnn(-c5ccc(F)cc5)c4)CC3)c2n1 [Compound 4, N-((1-(4-Fluorophenyl)-1H-pyrazol-4-yl)methyl)-1-(2-(6-methoxy-1,5-naphthyridin-4-yl)ethyl)piperidin-4-amine] | 4 (≈ 8.69 µM) | 8 (≈ 17.4 µM) | 9.64 ± 0.03 | 88.41 ± 0.15 | 2 (≈ 4.34 µM) | 8 (≈ 17.4 µM) | > 2.7 | 14.2 | 16 (≈ 34.7 µM) | > 128 | 8 (≈ 17.4 µM) | 2 (≈ 4.34 µM) | 4.34 | 2 | 4 (≈ 8.69 µM) | 
COc1ccc2nccc(CCN3CCC(NCc4cnn(-c5ccccc5)c4)CC3)c2n1 [Compound 5, 1-(2-(6-Methoxy-1,5-naphthyridin-4-yl)ethyl)-N-((1-phenyl-1H-pyrazol-4-yl)methyl)piperidin-4-amine] | 1 (≈ 2.26 µM) | 1 (≈ 2.26 µM) | 10.7 ± 0.01 | 82.1 ± 2.52 | 0.5 (≈ 1.13 µM) | 1 (≈ 2.26 µM) | > 2.7 | 25.5 | 1 (≈ 2.26 µM) | > 128 | 1 (≈ 2.26 µM) | 1 (≈ 2.26 µM) | 2.26 | 1 | 0.5 (≈ 1.13 µM) | 
COc1ccc2nccc(CCN3CCC(NC(=O)c4cn5cccc(C#N)c5n4)CC3)c2n1 [Compound 7, 8-Cyano-N-(1-(2-(6-methoxy-1,5-naphthyridin-4-yl)ethyl)piperidin-4-yl)imidazo[1,2-a]pyridine-2-carboxamide] |  |  |  | 90.3 ± 7.56 | > 128 |  |  | 2.6 |  |  |  |  | 281 | > 128 | 128 (≈ 281 µM) | MIC (MRSA (QA-11.6)): > 128 µg/mL; MIC (MRSA (QA-11.4)): > 128 µg/mL; MIC ([1]; Enterococcus faecalis, ATCC29212, read-out: MIC E. faecalis DRK 057 (ATCC 29212)): > 128 µg/mL; PAMPA permeability classification [low/high] (in vitro): int erm ediat e; MIC (E. coli D22; D22, read-out: MIC E. coli D22): > 128 µg/mL; MIC ([2]; Pseudomonas aeruginosa, DSM939, read-out: MIC P. aeruginosa RDK 184 (DSM 939)): > 128 µg/mL; MIC (MRSA (QA-11.2)): > 128 µg/mL; MIC ([3]; Streptococcus agalactiae, read-out: MIC S. agalactiae RDK 047 (QA-990/02)): > 128 µg/mL
COc1ccc2nccc(CCN3CCC(NCc4ccccc4)CC3)c2n1 [Compound 11] | 8 (≈ 21.2 µM) | 8 (≈ 21.2 µM) |  | 97 ± 9.58 | 8 (≈ 21.2 µM) | 16 (≈ 42.5 µM) | > 2.7 | 10.9 | 16 (≈ 42.5 µM) | > 128 | 8 (≈ 21.2 µM) | 16 (≈ 42.5 µM) | 21.2 | 8 | 2 (≈ 5.31 µM) | 
COc1ccc2nccc(CCN3CCC(NCc4ccc(F)cc4)CC3)c2n1 [Compound 12] | 4 (≈ 10.1 µM) | 4 (≈ 10.1 µM) |  | 101 ± 11.2 | 2 (≈ 5.07 µM) | 8 (≈ 20.3 µM) | > 2.7 | 12.1 | 16 (≈ 40.6 µM) | > 128 | 4 (≈ 10.1 µM) | 8 (≈ 20.3 µM) | 10.1 | 4 | 2 (≈ 5.07 µM) | 
COc1ccc2nccc(CCN3CCC(NCc4ccc(Cl)cc4)CC3)c2n1 [Compound 13] | 0.25 (≈ 0.608 µM) | 0.5 (≈ 1.22 µM) |  | 102 ± 0.84 | 0.25 (≈ 0.608 µM) | 1 (≈ 2.43 µM) | > 2.7 | 13.2 | 2 (≈ 4.87 µM) | > 128 | 0.25 (≈ 0.608 µM) | 1 (≈ 2.43 µM) | 1.22 | 0.5 | 0.5 (≈ 1.22 µM) | 
COc1ccc2nccc(CCN3CCC(NCc4ccc(Br)cc4)CC3)c2n1 [Compound 14] | 0.0625 (≈ 0.137 µM) |  |  | 98.2 ± 2.72 | 0.062 (≈ 0.136 µM) | 1 (≈ 2.2 µM) | > 2.7 | 31.5 |  | 128 (≈ 281 µM) |  | 0.5 (≈ 1.1 µM) | 0.27 | 0.125 | 0.125 (≈ 0.274 µM) | MIC (MRSA (QA-11.4)): 0.125 µg/mL (≈ 0.274 µM); MIC (E. coli D22; D22, read-out: MIC E. coli D22): 0.125 µg/mL (≈ 0.274 µM); MIC (MRSA (QA-11.2)): 0.125 µg/mL (≈ 0.274 µM)
COc1ccc2nccc(CCN3CCC(NCc4ccc(C(N)=O)cc4)CC3)c2n1 [Compound 17] | 4 (≈ 9.53 µM) | 8 (≈ 19.1 µM) |  | 97.8 ± 2.21 | 4 (≈ 9.53 µM) | 128 (≈ 305 µM) |  | 0.31 | 128 (≈ 305 µM) | > 128 | 8 (≈ 19.1 µM) | > 128 | 38.1 | 16 | 16 (≈ 38.1 µM) | PAMPA permeability classification [low/high] (in vitro): low
COc1ccc2nccc(CCN3CCC(NCc4ccc(N(C)C)cc4)CC3)c2n1 [Compound 18] | 0.25 (≈ 0.596 µM) | 0.5 (≈ 1.19 µM) |  | 94.2 ± 1.33 |  | 1 (≈ 2.38 µM) | > 2.7 | 16.7 | 8 (≈ 19.1 µM) | > 128 | 0.5 (≈ 1.19 µM) | 0.25 (≈ 0.596 µM) | 2.45 | 1 | 0.25 (≈ 0.596 µM) | 
